How the values were obtained:
[1] = molecular target: T1, CBP bromodomain and histone H3.3 (Homo sapiens, UniProt Q92793); experiment: NanoBRET, CBP bromodomain/histone H3.3 in HEK293 cells; type: cell-based; details: NanoBRET, 293 cells
T1 construct: NanoBRET with the isolated CBP bromodomain and histone H3.3 in 293 cells; host or cells: HEK293
Method: NanoBRET was carried out using the NanoBRET Protein:Protein Interaction System (Promega, Inc.; Madison, WI) according to the manufacturer’s instructions. Briefly, HEK293 cells were transiently co-transfected with a vector for histone H3.3-HaloTag and a NanoLuc tagged CBP bromodomain expression construct. Transfected cells were plated in 96 -well plates in the presence or absence of ligand, then treated with dose titrations of indicated compounds. Readings were performed on an Envision Plate Reader (Perkin Elmer, Inc.; Waltham, MA) and BRET readings were calculated by dividing the acceptor emission value (600 nm) by the donor emission value (460/50 nm).

[2] = molecular target: T2, first bromodomain of BRD4 (BRD4-BD1) (Homo sapiens, UniProt O60885); experiment: AlphaLISA, acetylated peptide binding to BRD4-BD1; details: BRD4-BD1, H4-TetraAc-biotin peptide; n ≥ 2 independent replicates
T2 construct: the first bromodomain of BRD4 (BRD4-BD1)
Method: (§1) Compound at varying concentrations were dispensed into 384 well Proxiplates (Perkin Elmer) using Echo technology (Labcyte, Inc.; Sunnyvale, CA). For CBP assays, 0.5 μM His-Flag-tagged CBP bromodomain (amino acids 1082–1197) was incubated with 0.003 μM H4-TetraAc-biotin for 20 min at room temperature in 1x reaction buffer (50 mM HEPES pH 7.5, 1 mM TCEP, 0.069 mM Brij-35, 150 mM NaCl, and 0.1 mg/ml BSA). Streptavidin acceptor beads and nickel donor beads (Perkin Elmer) were added to 15 μg/ml with a Combi Multidrop dispenser. Plates were sealed and incubated at 90 min in the dark at room temperature, and plates were read on an Envision plate reader (Perkin Elmer) according to manufacturer’s instructions. For the BET assays, the protocol was similar except that BET family bromodomains were used at 0.03 μM (BRD4-BD1) and incubated with 0.2 μM H4-TetraAc-biotin for 20 min in reaction buffer (40 mM HEPES pH7.0, 1 mM DTT, 0.069 mM Brij-35, 40 mM NaCl, and 0.1 mg/ml BSA). Streptavidin donor beads and Anti-Flag Acceptor beads (Perkin Elmer) were added to 10 μg/ml, and then plates were sealed and incubated in the dark for 60 min prior to reading on the Envision.

[3] = molecular target: T3, CBP bromodomain (amino acids 1082–1197) (Homo sapiens, UniProt Q92793); experiment: AlphaLISA, acetylated peptide binding to CBP bromodomain; details: isolated CBP bromodomain, H4-TetraAc-biotin peptide; n ≥ 2 independent replicates
T3 construct: His-Flag-tagged CBP bromodomain (amino acids 1082–1197)
Method: as §1

[4] = molecular target: T4, full length BRD4 ZsGreen fusion protein (Homo sapiens, UniProt O60885); experiment: Bromodomain chromatin release assay, BRD4 (U2OS, high content imaging); type: cell-based; details: 2 hr, n = 2 biological replicates ± SEM, read-out: IC50 (μM), BRD4 chromatin release (EC50)
T4 construct: CBP: CBP-bromodomain/BRD9; BRD4: full length BRD4; expressed in transfected cells
Method: As described previously ([Huang et al., 2014]), this assay monitors the compound-dependent release and aggregation of a fusion protein consisting of a bromodomain and the fluorescent protein ZsGreen. For the BRD4 chromatin release assay, U2OS cells capable of inducibly expressing the full-length BRD4 protein in fusion with ZsG were generated using the pLVT3G/ZsGreen-BRD4/TO3G vector and maintained in blasticidin at 15 μg/ml. […] Therefore, the bromodomain (BD) of CBP was cloned into full length BRD9 (replacing the BRD9 BD) in frame with a ZsGreen fluorescent tag (ZsG). U2OS cells capable of inducibly expressing the ZsGreen-CBPBD fusion protein were generated by lentiviral delivery of the pLVT3G/BRD9-ZsG-CBPBD/TO3G vector, which contains both the inducible fusion protein and the tet transactivator. Cells were selected and maintained in the presence of 15 μg/ml blasticidin. 5000 cells/well were seeded in 384-well imaging plates in the presence of 2 μg/ml doxycycline to induce the expression of ZsG-fusion proteins. After 16 hr of incubation with doxycycline, fresh media containing serial dilution of compounds were added to the cells for 2 hr at 37°C. Cells were fixed with 4% paraformaldehyde (PFA) dissolved in PBS for 15 min at room temperature. Images of cells were acquired using ImageXpress Micro (Molecular Devices, Inc.; Sunnyvale, CA) and processed with the Transfluor Module of MetaXpress software. Average pits per cell values were obtained from four adjacent images in each well with two technical replicates for each compound concentration. Dose-response curves were generated by plotting the average pits per cell values at each dose and EC50 values were calculated by a four-parameter non-linear regression model in GraphPad Prism.

T1 sequence (Q92793 1085-1192 limits assumed): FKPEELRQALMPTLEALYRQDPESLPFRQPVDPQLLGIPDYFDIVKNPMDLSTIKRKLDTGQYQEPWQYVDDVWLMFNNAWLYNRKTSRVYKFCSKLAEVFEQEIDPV
T3 sequence (Q92793 1082-1197): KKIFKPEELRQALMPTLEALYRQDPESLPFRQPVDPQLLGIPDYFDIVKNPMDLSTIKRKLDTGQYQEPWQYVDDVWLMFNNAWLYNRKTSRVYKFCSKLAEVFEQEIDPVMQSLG

Question: What does the source list for `Cc1sc2c(c1C)C(c1ccc(Cl)cc1)=N[C@@H](CC(N)=O)c1nnc(C)n1-2` [CPI203]?
Answer: dose-dependent inhibition of CBP-H3.3 binding [1]: did not display dose-dependent inhibition; IC50 [2]: 50 ± 10 nM; IC50 [3]: 6500 ± 640 nM; EC50 [4]: 0.05 ± 0.02 µM
